In one assay the test system is p-STAT5. Kind of assay: p-STAT5 by immunoblot in IL-15-activated NK cells pretreated with Mertk inhibitors. It counts as cell-based, human. The settings on record: 5 uM, 90 min pretreatment, then IL-15 (10 ng/ml) 30 min, vs no inhibitor. As to the method:
FIGS. 5A-5D depict the results of a study showing that Cbl-b interacts with and regulates phosphorylation of Mertk in primary human NK cells. (FIG. 5A) Representative intracellular flow cytometric analysis of the TAM family receptors expression in primary human NK cells. Summarized data are shown from 6 donors. IgG1 is the isotype for Tyro3 and Axl, while IgG2 for Mertk. (FIG. 5B) The level of Mertk phosphorylation and Cbl-b in Cbl-b siRNA- or Scr siRNA-transduced primary human NK was measured by immunoblot analysis. Data presented are representative of five independent experiments. […] Data presented are representative of 4 donors performed in a similar fashion and are summarized in the panel below the representative flow dot plots. […]
Immunoblotting. […] Densitometric analysis was performed to quantify intensity of gel bands with Image J (National Institutes of Health).
The TAM receptor family consists of Tyro3, Axl and Mertk, all of which are expressed in mature mouse NK cells (25) and are molecular substrates for Cbl-b ubiquitylation both in vitro and in vivo (17). To investigate the possible relationship between Cbl-b and the TAM receptor family in primary human NK cells, we detected the expression of the three TAM receptor members in NK cells. […]
Background: Immunoblotting shows a protein as a band on a membrane.

For another assay, the system named is IFN-γ. The assay can be described thus: Intracellular IFN-γ flow cytometry of NK cells pretreated with Mertk inhibitors. Particulars: for percentage of intracellular IFN-γ+ cells: 5 uM, 90 min pretreatment, then IL-15 (10 ng/ml) 24 h; for IFN-γ level lower than control with no inhibitor: in the presence of IL-15. It counts as cell-based, human. As to the method:
FIGS. 5A-5D depict the results of a study showing that Cbl-b interacts with and regulates phosphorylation of Mertk in primary human NK cells. (FIG. 5A) Representative intracellular flow cytometric analysis of the TAM family receptors expression in primary human NK cells. Summarized data are shown from 6 donors. IgG1 is the isotype for Tyro3 and Axl, while IgG2 for Mertk. (FIG. 5B) The level of Mertk phosphorylation and Cbl-b in Cbl-b siRNA- or Scr siRNA-transduced primary human NK was measured by immunoblot analysis. Data presented are representative of five independent experiments. […] Data presented are representative of 4 donors performed in a similar fashion and are summarized in the panel below the representative flow dot plots. (FIG. 5D) Primary NK cells were pretreated with the Mertk inhibitors UNC2550 or UNC2881 (5 uM) for 90 min prior to 30 min activation by IL-15 (10 ng/ml). Data presented are representative of 4 donors performed in a similar fashion. Scr-scrambled; *P<0.05; ns, not significant. Data presented as mean±SEM.
Flow cytometry. To determine protein cell surface expression via flow cytometry, cells were stained with monoclonal antibodies at room temperature for 20 minutes and washed with FACS buffer prior to analysis using a Fortessa X-20 flow cytometer (BD Biosciences). For IFN-γ intracellular flow cytometric analysis, […] GolgiPlug (BD Biosciences) was added for 4 h before cell harvest; cells were then permeabilized and fixed using a Cytofix/Cytoperm Fixation/Permeabilization Solution Kit (BD Biosciences), followed by analysis with a Fortessa X-20 flow cytometer. Intracellular flow cytometric analysis of Mertk was performed similarly except that GolgiPlug was not added. Data was analyzed by using Flowjo V10 software (Tree Star, Ashland, OR, USA).
The TAM receptor family consists of Tyro3, Axl and Mertk, all of which are expressed in mature mouse NK cells (25) and are molecular substrates for Cbl-b ubiquitylation both in vitro and in vivo (17). To investigate the possible relationship between Cbl-b and the TAM receptor family in primary human NK cells, we detected the expression of the three TAM receptor members in NK cells. […] However, the level of total mertk is low in human NK cells (FIG. 10B), preventing us to characterize the mechanism associated with the p-Mertk regulation by Cbl-b. Next, primary human NK cells were pretreated with or without Mertk inhibitors (UNC2550 or UNC2881), followed by IL-15 stimulation.
(In flow cytometry, cells or beads pass a laser one at a time.)

For the compound `CCCCNc1ncc(C(=O)NCc2ccc(-n3ccnc3)cc2)c(NC2CCC(O)CC2)n1` (stereo not drawn) [UNC2881], in the assay on p-STAT5, the “level of p-STAT5” value is “decreased”. In the assay with IFN-γ, the “percentage of intracellular IFN-γ+ cells” value is given as 5.49% and the “IFN-γ level lower than control with no inhibitor” value was “approximately 3 fold”.

With UNC2550, the “level of p-STAT5” value with p-STAT5 is “decreased”. In the assay on IFN-γ, the “percentage of intracellular IFN-γ+ cells” value came to 5.49% and the “IFN-γ level lower than control with no inhibitor” value is “approximately 3 fold”.

The values are drawn from patent US20240299542A1, “NATURAL KILLER CELLS ENGINEERED TO REDUCE OR ELIMINATE CBL-B AND USES THEREOF” (City of Hope, priority 2021, published 2024).
